How the values were obtained:
Format in all cases: functional, cell-based
HeLa = assay: Cytotoxicity against Homo sapiens (human) HeLa cells assessed as cell viability after 72 hr by MTT assay
[1] = Cytotoxicity against Homo sapiens (human) SMMC-7404 cells assessed as cell viability after 72 hr by MTT assay
[2] = Cytotoxicity against Homo sapiens (human) MGC7901 cells assessed as cell viability after 72 hr by MTT assay

SMILES | IC50 (HeLa) | IC50 [1] | IC50 [2]
CC(C)CCC[C@@H](C)[C@H]1CC[C@H]2[C@@H]3C[C@H](OS(=O)(=O)[O-])C4C/C(=N/O)CC[C@]4(C)[C@H]3CC[C@]12C.[Na+] (some centres not stated) | 12.5 µM | 10.2 µM | 33.3 µM
CC[C@H](/C=C/[C@@H](C)[C@H]1CC[C@H]2[C@@H]3C/C(=N/O)C4C[C@@H](OS(=O)(=O)[O-])CC[C@]4(C)[C@H]3CC[C@]12C)C(C)C.[Na+] (some centres not stated) | 14.3 µM | > 100 µM | 27.7 µM
CC(C)CCC[C@@H](C)[C@H]1CC[C@H]2[C@@H]3C/C(=N/O)C4C[C@@H](OS(=O)(=O)[O-])CC[C@]4(C)[C@H]3CC[C@]12C.[Na+] (some centres not stated) | 9.6 µM | 12.9 µM | 6.5 µM
CC(C)CCC[C@@H](C)[C@H]1CC[C@H]2[C@@H]3C/C(=N/O)C4=C[C@@H](OS(=O)(=O)[O-])CC[C@]4(C)[C@H]3CC[C@]12C.[Na+] | 25.3 µM | 62.2 µM | > 100 µM

From ChEMBL document CHEMBL3044644, “Syntheses and antiproliferative activity of some sulfated hydroximinosterols” (Med Chem Res, 2013)
